Data as given in patent publication US12624034B2, “Non-covalent modifiers of AKT1 and uses thereof” (Terremoto Biosciences, Inc., priority 2023, dated 2026).
Like-named read-outs stand apart in the source and are kept apart here.

Legend:
[1] = target: T1, AKT1 WT (Homo sapiens, UniProt P31749); test: Live cell AKT1 WT target engagement by NanoBRET competitive probe displacement in HEK293 cells; assay type: binding; details: 2 h at 37° C.
T1 construct: expressed in transfected cells; host or cells: HEK293
Procedure: (§1) Determining live cell AKT1 E17K, AKT1 WT, and AKT2 target engagement by NanoBRET competitive probe displacement. […] Briefly, HEK293 cells were transfected with plasmids encoding kinase-NanoLuciferase fusion proteins overnight. Cells were then treated with serial dilutions of compound and an ˜EC50 concentration of fluorescently-tagged ATP-competitive tracer (Promega). After incubation for 2 h at 37° C., luciferase substrate and extracellular luciferase inhibitor were added to all wells, and luminescent intensity at 460 nm and 600 nm were measured on a multimode plate-reader. The ratio of E600/E460 was calculated to give the tracer engagement signal (BRET). IC50 values were calculated by fitting BRET values to a log(inhibitor) vs. response Hill equation.

[2] = target: T2, AKT2 (Homo sapiens, UniProt P31751); test: Live cell AKT2 target engagement by NanoBRET competitive probe displacement in HEK293 cells; assay type: binding; details: 2 h at 37° C.
T2 construct: expressed in transfected cells; host or cells: HEK293
Procedure: as §1

[3] = NanoBRET competitive probe displacement, live HEK293 cells, read-out: AKT1 WT IC50
[4] = NanoBRET competitive probe displacement, live HEK293 cells, read-out: AKT2 IC50
[5] = NanoBRET live cell target engagement, HEK293 cells, read-out: AKT1 WT IC50
[6] = NanoBRET live cell target engagement, HEK293 cells, read-out: AKT2 IC50

T1 sequence (P31749 whole entry): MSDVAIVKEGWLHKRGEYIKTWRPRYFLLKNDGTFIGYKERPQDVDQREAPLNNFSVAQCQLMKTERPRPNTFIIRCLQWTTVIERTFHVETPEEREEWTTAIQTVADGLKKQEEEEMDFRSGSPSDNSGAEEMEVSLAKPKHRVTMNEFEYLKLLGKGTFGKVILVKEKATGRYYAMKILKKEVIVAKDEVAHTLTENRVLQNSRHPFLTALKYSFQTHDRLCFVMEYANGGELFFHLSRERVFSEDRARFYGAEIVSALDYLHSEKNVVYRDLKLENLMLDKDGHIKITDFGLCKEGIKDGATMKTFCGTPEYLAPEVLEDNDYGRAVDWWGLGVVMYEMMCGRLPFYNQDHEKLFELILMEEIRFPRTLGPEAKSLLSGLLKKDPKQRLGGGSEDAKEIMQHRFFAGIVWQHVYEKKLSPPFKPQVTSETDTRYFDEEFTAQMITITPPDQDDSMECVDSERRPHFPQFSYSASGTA
T2 sequence (P31751 whole entry): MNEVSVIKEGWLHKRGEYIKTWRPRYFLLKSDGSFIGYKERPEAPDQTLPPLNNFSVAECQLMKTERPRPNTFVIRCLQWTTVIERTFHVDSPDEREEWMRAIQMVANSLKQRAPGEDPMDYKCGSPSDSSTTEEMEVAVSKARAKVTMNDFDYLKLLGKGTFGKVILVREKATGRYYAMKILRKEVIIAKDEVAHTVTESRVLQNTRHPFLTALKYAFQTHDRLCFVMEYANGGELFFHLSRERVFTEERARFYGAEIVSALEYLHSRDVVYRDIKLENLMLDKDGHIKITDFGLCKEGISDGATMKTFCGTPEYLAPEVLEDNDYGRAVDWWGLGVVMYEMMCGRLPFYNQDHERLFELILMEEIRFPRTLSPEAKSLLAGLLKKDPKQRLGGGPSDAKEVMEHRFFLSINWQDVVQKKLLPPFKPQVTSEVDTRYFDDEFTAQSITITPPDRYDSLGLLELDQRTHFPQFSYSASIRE

Compound	IC50 [1, 3]	IC50 [2, 4]	IC50 [1, 5]	IC50 [2, 6]	other results
COCCN(C)[C@H]1CCc2cc(-n3c(-c4cccnc4N)nc4ccc(-n5cccn5)nc43)ccc21 [Compound 457]	235 nM	6740 nM	–	–	–
Nc1ncccc1-c1nc2ccc(-n3cccn3)nc2n1-c1ccc2c(c1)CC[C@@H]2NC(=O)c1ccc2nccn2n1 [Compound 236]	–	–	12.1 nM	158 nM	–
Nc1ncccc1-c1nc2ccc(-n3cccn3)nc2n1-c1ccc2c(c1)CC[C@@H]2NC(=O)c1cc2ccccn2n1 [Compound 175]	–	–	13 nM	79.7 nM	–
COc1cncc(-c2ccc3nc(-c4cccnc4N)n(-c4ccc5c(c4)CC[C@@H]5NC4CCN(C(=O)C5CC5)CC4)c3n2)n1 [Compound 577]	87.9 nM	904 nM	–	–	–
Nc1ncccc1-c1nc2ccc(-n3nccn3)nc2n1-c1ccc2c(c1)CC[C@@H]2NC(=O)c1cccnc1C(F)F [Compound 107]	–	–	118 nM	> 10000 nM	–
Cc1cnc2ccc(C(=O)N[C@H]3CCc4cc(-n5c(-c6cccnc6N)nc6ccc(-n7nccn7)nc65)ccc43)cn12 [Compound 398]	17.8 nM	1090 nM	–	–	–
Cc1nc(C2CC2)ccc1C(=O)N[C@H]1CCc2cc(-n3c(-c4cccnc4N)nc4ccc(-n5nccn5)nc43)ccc21 [Compound 539]	5.11 nM	430 nM	–	–	–
Nc1ncccc1-c1nc2ccc(-n3cccn3)nc2n1-c1ccc2c(c1)CC[C@@H]2NC(=O)c1ccnc(OC2CC2)c1 [Compound 201]	–	–	9.27 nM	66.5 nM	–
Nc1ncccc1-c1nc2ccc(-c3cnccn3)nc2n1-c1ccc2c(c1)CC[C@@H]2NC1CCN(C(=O)C2CC2)CC1 [Compound 556]	124 nM	1330 nM	–	–	–
Nc1ncccc1-c1nc2ccc(-n3cccn3)nc2n1-c1ccc2c(c1)CC[C@@H]2n1nnc2ccccc21 [Compound 345]	–	–	51.6 nM	752 nM	–
Cc1ccc(C(=O)N[C@H]2CCc3cc(-n4c(-c5cccnc5N)nc5ccc(-n6cnc(C)n6)nc54)ccc32)cn1 [Compound 417, (S)—N-(5-(2-(2-aminopyridin-3-yl)-5-(3-methyl-1H-1,2,4-triazol-1-yl)-3H-imidazo[4,5-b]pyridin-3-yl)-2,3-dihydro-1H-inden-1-yl)-6-methylnicotinamide]	19.6 nM	561 nM	–	–	–
Nc1ncccc1-c1nc2ccc(C#CC3CC3)nc2n1-c1ccc2c(c1)CC[C@@H]2NC(=O)c1ccc(C(F)F)nc1 [Compound 406]	20.4 nM	903 nM	–	–	–
Nc1ncccc1-c1nc2ccc(-n3cccn3)nc2n1-c1ccc2c(c1)CC[C@@H]2NC1CCN(C(=O)C2CC2)CC1F (stereo partly shown) [Compound 445]	20.2 nM	980 nM	–	–	–
Nc1ncccc1-c1nc2ccc(-n3cccn3)nc2n1-c1ccc2c(c1)CC[C@@H]2n1cc(C2COC2)nn1 [Compound 220]	–	–	68.2 nM	6260 nM	–
CN1CC(c2cn([C@H]3CCc4cc(-n5c(-c6cccnc6N)nc6ccc(-n7cccn7)nc65)ccc43)nn2)C1 [Compound 251]	–	–	363 nM	5810 nM	–
Nc1ncccc1-c1nc2ccc(-n3cccn3)nc2n1-c1ccc2c(c1)CC[C@@H]2NC1CC2(CCN(c3ccccn3)CC2)C1 [Compound 449]	79.7 nM	1200 nM	–	–	–
Cc1ccc2nc(-c3cccnc3N)n(-c3ccc4c(c3)CC[C@@H]4NC(=O)c3cccnc3C)c2n1 [Compound 145]	–	–	170 nM	> 10000 nM	–
Nc1ncccc1-c1nc2ccc(-n3cccn3)nc2n1-c1ccc2c(c1)CC[C@@H]2n1cc(-c2ccccc2)nn1 [Compound 155, (S)-3-(3-(1-(4-phenyl-1H-1,2,3-triazol-1-yl)-2,3-dihydro-1H-inden-5-yl)-5-(1H-pyrazol-1-yl)-3H-imidazo[4,5-b]pyridin-2-yl)pyridin-2-amine]	–	–	–	–	IC50 ([1]; AKT1 WT IC50 (nM), NanoBRET live cell target engagement, HEK293 cells): 16.5 nM; IC50 ([2]; AKT2 IC50 (nM), NanoBRET live cell target engagement, HEK293 cells): 197 nM
Nc1ncccc1-c1nc2ccc(-n3cccn3)nc2n1-c1ccc2c(c1)CC[C@@H]2NC(=O)[C@H]1CCO1 [Compound 372]	–	–	> 1000 nM	> 10000 nM	–
Nc1ncccc1-c1nc2ccc(-n3cccn3)nc2n1-c1ccc2c(c1)CC[C@@H]2NC(=O)c1ccn(C2CC2)n1 [Compound 215]	–	–	21.5 nM	381 nM	–
Nc1ncccc1-c1nc2ccc(-n3cccn3)nc2n1-c1ccc2c(c1)CC[C@@H]2NC(=O)c1ccnc(F)c1 [Compound 295]	–	–	5.59 nM	81.3 nM	–
Cc1cc(C(=O)N[C@H]2CCc3cc(-n4c(-c5cccnc5N)nc5ccc(-n6cccn6)nc54)ccc32)c(C)nc1C [Compound 150]	–	–	18.2 nM	107 nM	–

Compound	IC50 [1, 3]	IC50 [2, 4]	IC50 [1, 5]	IC50 [2, 6]	other results
Nc1ncccc1-c1nc2ccc(-n3cccn3)nc2n1-c1ccc2c(c1)CC[C@@H]2NC(=O)c1ccn2ccnc2c1 [Compound 255]	–	–	3.42 nM	30.4 nM	–
Nc1ncccc1-c1nc2ccc(-n3cccn3)nc2n1-c1ccc2c(c1)CC[C@@H]2n1cc(-c2ccncc2)nn1 [Compound 198]	–	–	9.5 nM	113 nM	–
Cc1nccnc1C(=O)N[C@H]1CCc2cc(-n3c(-c4cccnc4N)nc4ccc(-c5ccn(C(F)F)n5)nc43)ccc21 [Compound 301]	–	–	189 nM	2050 nM	–
Nc1ncccc1-c1nc2ccc(-n3cccn3)nc2n1-c1ccc2c(c1)CC[C@@H]2NC(=O)c1ccc2[nH][nH]c(=O)c2c1 [Compound 189]	–	–	554 nM	2850 nM	–
CC(=O)Nc1ccc(C(=O)N[C@H]2CCc3cc(-n4c(-c5cccnc5N)nc5ccc(-n6cccn6)nc54)ccc32)cc1 [Compound 196]	–	–	9.31 nM	72.4 nM	–
COc1cc(C(=O)N[C@H]2CCc3cc(-n4c(-c5cccnc5N)nc5ccc(-n6cccn6)nc54)ccc32)sn1 [Compound 429]	5.64 nM	57 nM	–	–	–
CN(C)Cc1ccc(C(=O)N[C@H]2CCc3cc(-n4c(-c5cccnc5N)nc5ccc(-n6cccn6)nc54)ccc32)cn1 [Compound 85]	–	–	36.3 nM	169 nM	–
Cn1ccc(C#Cc2cc(C(=O)N[C@H]3CCc4cc(-n5c(-c6cccnc6N)nc6ccc(-n7cccn7)nc65)ccc43)ccn2)n1 [Compound 182]	–	–	11.5 nM	219 nM	–
Nc1ncccc1-c1nc2ccc(-n3cccn3)nc2n1-c1ccc2c(c1)CC[C@H]2n1ccnn1 [Compound 227]	–	–	> 1000 nM	> 10000 nM	–
Cc1cc(C(=O)N[C@H]2CCc3cc(-n4c(-c5cccnc5N)nc5ccc(-n6cccn6)nc54)ccc32)cnc1C [Compound 115]	–	–	5.16 nM	31.7 nM	–
CC(=O)Nc1c(F)cc(C(=O)N[C@H]2CCc3cc(-n4c(-c5cccnc5N)nc5ccc(-n6cccn6)nc54)ccc32)cc1F [Compound 294]	–	–	5.27 nM	29.1 nM	–
Nc1ncccc1-c1nc2ccc(-n3cccn3)nc2n1-c1ccc2c(c1)CC[C@@H]2n1cnnc1-c1ccccc1 [Compound 178]	–	–	88.2 nM	3520 nM	–
CS(=O)(=O)Nc1ccc(C(=O)N[C@H]2CCc3cc(-n4c(-c5cccnc5N)nc5ccc(-n6cccn6)nc54)ccc32)cc1 [Compound 195]	–	–	12.4 nM	48.9 nM	–
Cn1ccc(=O)n1-c1ccn(-c2ccc3nc(-c4cccnc4N)n(-c4ccc5c(c4)CC[C@@H]5NC4CCN(C(=O)C5CC5)CC4)c3n2)n1 [Compound 573]	318 nM	5640 nM	–	–	–
Nc1ncccc1-c1nc2ccc(-c3ccn(C(F)F)n3)nc2n1-c1ccc2c(c1)CC[C@@H]2n1ccnn1 [Compound 315]	–	–	23.9 nM	617 nM	–
CC(=O)Nc1ccc(C(=O)N[C@H]2CCc3cc(-n4c(-c5cccnc5N)nc5ccc(-n6cccn6)nc54)ccc32)cn1 [Compound 232]	–	–	13.5 nM	46.6 nM	–
Nc1ncccc1-c1nc2ccc(-n3cccn3)nc2n1-c1ccc2c(c1)CC[C@@H]2NC(=O)c1cncc(OC(F)(F)F)c1 [Compound 138]	–	–	13.5 nM	284 nM	–
Nc1ncccc1-c1nc2ccc(-n3cccn3)nc2n1-c1ccc2c(c1)CC[C@@H]2NC(=O)c1cccnc1CO [Compound 152, (S)—N-(5-(2-(2-aminopyridin-3-yl)-5-(1H-pyrazol-1-yl)-3H-imidazo[4,5-b]pyridin-3-yl)-2,3-dihydro-1H-inden-1-yl)-2-(hydroxymethyl)nicotinamide]	–	–	61.7 nM	984 nM	–
COc1ccn(-c2ccc3nc(-c4cccnc4N)n(-c4ccc5c(c4)CC[C@@H]5NC4CCN(C(=O)C5CC5)CC4F)c3n2)n1 (stereo partly shown) [Compound 512]	19.7 nM	409 nM	–	–	–
Cc1ccc(C(=O)N[C@H]2CCc3cc(-n4c(-c5cccnc5N)nc5ccc(-c6ncn(C)n6)nc54)ccc32)cn1 [Compound 455, (S)—N-(5-(2-(2-aminopyridin-3-yl)-5-(1-methyl-1H-1,2,4-triazol-3-yl)-3H-imidazo[4,5-b]pyridin-3-yl)-2,3-dihydro-1H-inden-1-yl)-6-methylnicotinamide]	195 nM	3020 nM	–	–	–
Cc1ccc(C(=O)N[C@H]2CCc3cc(-n4c(-c5cccnc5N)nc5ccc(-c6ncco6)nc54)ccc32)cn1 [Compound 223]	–	–	38.7 nM	586 nM	–
Nc1ncccc1-c1nc2ccc(-n3ccc(Oc4cccnc4)n3)nc2n1-c1ccc2c(c1)CC[C@@H]2NC1CCN(C(=O)C2CC2)CC1 [Compound 568]	8.72 nM	458 nM	–	–	–
